Structures can show the parent of a compound that is named as a salt.
Test: Oil-water partition ratio
Type: physicochemical
Settings: 0.05% by mass aqueous solution vs oil phase soybean oil:MCT 1:1, 25° C.
Experimental: 5 g of an oil phase (soybean oil:medium-chain fatty acid triglyceride=1:1) was added to 5 g of a 0.05% by mass aqueous levobupivacaine hydrochloride solution, and the mixture was stirred with a vortex mixer for 1 minute. After that, the whole was transferred to a centrifugation tube and centrifuged at 3600 rpm at 25° C. for 10 minutes, and the aqueous phase was separated. The levobupivacaine concentration of the aqueous phase was measured by HPLC, and the oil-water partition ratio was determined.

- proportion present in the aqueous phase (oil-water partition ratio): 94.3%
Structure (SMILES): CCCCN1CCCC[C@H]1C(=O)Nc1c(C)cccc1C [levobupivacaine hydrochloride, (2S)-1-butyl-N-(2,6-dimethylphenyl)piperidine-2-carboxamide]
